{
  "source": "patent US7632870B2",
  "about": "“Composition based on substituted 1,3-diphenylprop-2-en-1-one derivatives, preparation and uses thereof” (Genfit, priority 2002, dated 2009)",
  "key": {"LDL": {"system": "LDL", "test": "Protection against LDL oxidation by copper (conjugated diene formation)", "format": "biochemical", "settings": "compound at 10^-4M", "description": "LDL oxidation is an important alteration and plays a predominant role in the establishment and development of atherosclerosis (Jurgens, Hoff et al. 1987). […] Unless otherwise indicated, the reagents were from Sigma (St Quentin, France).\nLDL were prepared according to the method described by Lebeau et al. (Lebeau, Furman et al. 2000).\nThe solutions of test compounds were prepared at 10^−2 M concentration in bicarbonate buffer (pH 9) and diluted in PBS to obtain final concentrations ranging from 0.1 to 100 μM for a total ethanol concentration of 1% (V/V).\nPrior to oxidation, EDTA was removed from the LDL preparation by dialysis. Oxidation then took place at 30° C. by addition of 100 μl of 16.6 μM CuSO4 solution to 160 μL of LDL (125 μg protein/ml) and 20 μl of a test compound solution. The formation of dienes, the species under observation, was followed by measuring optical density at 234 nm in the samples treated with the compounds but in the presence or absence of copper. Optical density at 234 nm was measured every 10 minutes for 8 hours in a thermostated spectrophotometer (Tecan Ultra 380). The analyses were performed in triplicate. The compounds were considered to have antioxidant activity when they induced a longer lag phase and reduced the rate of oxidation and the amount of dienes formed in comparison with the control sample. […] FIGS. 1, 2 and 3 give an example of the results illustrating the antioxidant properties of compounds 2 and 5."}, "PPARα": {"biological_target": "T1, PPARα (Homo sapiens, UniProt Q07869)", "T1 construct": "expressed in transfected cells; host or cells: RK13 cells", "T1 sequence (Q07869 239-466 limits assumed)": "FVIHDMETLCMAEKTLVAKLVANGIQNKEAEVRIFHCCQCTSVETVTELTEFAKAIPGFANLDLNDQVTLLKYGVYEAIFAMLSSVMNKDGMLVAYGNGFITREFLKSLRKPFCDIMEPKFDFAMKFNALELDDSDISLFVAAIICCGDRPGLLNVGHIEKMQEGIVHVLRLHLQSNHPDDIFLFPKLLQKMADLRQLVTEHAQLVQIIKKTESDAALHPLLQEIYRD", "test": "PPARα/Gal4 transactivation system in RK13 cells (luciferase reporter)", "format": "cell-based, rabbit", "settings": "24 hours", "description": "RK13 cells were incubated with the different compounds at concentrations of 10, 30 and 100 μM or 1, 10 and 100 μM for 24 hours. The results are expressed as the induction factor (luminescent signal relative to untreated cells) after the different treatments.\nPPAR activation was tested in vitro in RK13 fibroblast cell lines by measuring the transcriptional activity of chimeras composed of the DNA binding domain of the yeast gal4 transcription factor and the ligand binding domain of the different PPARs. These latter results were then confirmed in cell lines according to the following protocols:\nRK13 cells were from ECACC (Porton Down, UK) and were grown in DMEM medium supplemented with 10% (V/N) fetal calf serum, 100 U/ml penicillin (Gibco, Paisley, UK) and 2 mM L-glutamine (Gibco, Paisley, UK). The culture medium was changed every two days. Cells were kept at 37° C. in a humidified 95% air/5% CO2 atmosphere.\nThe plasmids pG5TkpGL3, pRL-CMV, pGal4-hPPRAα, pGal4-hPPRAγ and pGal4-φ have been described by Raspe, Madsen et al. (1999). The pGal4-mPPRAα and pGal4-hPPRAγ constructs were obtained by cloning into the pGal4-φ vector of PCR-amplified DNA fragments corresponding to the DEF domains of the human PPARα and PPRAγ nuclear receptors.\n[…] At the end of the experiment, the cells were lysed (Gibco, Paisley, UK) and luciferase activity was determined with a Dual-Luciferase™ Reporter Assay System kit (Promega, Madison, Wis., USA) according to the supplier's instructions as previously described (Raspe, Madsen et al. 1999)."}, "[1]": {"system": "Apo E2/E2 transgenic mice", "test": "Effects on triglyceride and cholesterol metabolism in vivo", "description": "Apo E2/E2 transgenic mice were kept on a 12-hour light/dark cycle at a constant temperature of 20±3° C. After a 1 week acclimation, the mice were weighed and divided into groups of 6 animals selected so that body weight would be uniformly distributed. The test compounds were suspended in carboxymethylcellulose and administered by intragastric gavage at the indicated doses, once a day for 7 or 8 days. Animals had access to food and water ad libitum. At the end of the experiment the animals were weighed and sacrificed under anesthesia. Blood was collected on EDTA. Plasma was prepared by centrifugation at 3000 rpm for 20 minutes. Liver samples were taken and stored frozen in liquid nitrogen for subsequent analysis.\nSerum lipid concentrations (total cholesterol and free cholesterol, triglycerides and phospholipids) were determined by a colorimetric assay (Boehringer, Mannheim, Germany) according to the supplier's instructions. Serum concentrations of apolipoproteins AI, AII and CIII were determined as previously described (Raspe et al. J. Lipid Res. 40, 2099-2110, 1999, Asset G et al., Lipids, 34, 39-44, 1999)."}},
  "data": [
    {"smiles": "CC(C)(Oc1ccc(C(=O)/C=C/c2cc(C(C)(C)C)c(O)c(C(C)(C)C)c2)c(O)c1)C(=O)O", "note": "[Compound 2, 1-[2-hydroxy-4-carboxydimethylmethyloxyphenyl]-3-[3.5-ditertbutyl-4-hydroxyphenyl]prop-2-en-1-one]", "values": [
      {"measurement": "lag phase of conjugated diene formation", "setting": "LDL; FIG. 1-1, copper alone 111 minutes", "result": "more than 480 minutes"},
      {"measurement": "rate of conjugated diene formation", "setting": "LDL; FIG. 1-2, copper alone 2", "result": "not measurable because too low"},
      {"measurement": "maximum amount of conjugated dienes formed", "setting": "LDL; FIG. 1-3, copper alone 348", "result": "54.4 nmol per mg of LDL"},
      {"measurement": "decrease in conjugated diene formation", "setting": "LDL; FIG. 1-3, versus copper alone", "result": 84, "unit": "%"}
    ]},
    {"smiles": "CC(C)(Oc1ccc(/C=C/C(=O)c2ccccc2O)cc1)C(=O)O", "note": "[Compound 4, 1-[2-hydroxyhenyl]-3-[4-carboxydimethylmethyloxyphenyl]pron-2-en-1-one]", "values": [
      {"measurement": "Induction factor (luminescent signal relative to untreated cells)", "setting": "PPARα; 10 μM", "result": 4},
      {"measurement": "Induction factor (luminescent signal relative to untreated cells)", "setting": "PPARα; 10 μM, listed as Cp4", "result": 3.99},
      {"measurement": "Induction factor (luminescent signal relative to untreated cells)", "setting": "PPARα; 30 μM", "result": 22},
      {"measurement": "Induction factor (luminescent signal relative to untreated cells)", "setting": "PPARα; 30 μM, listed as Cp4", "result": 22.15},
      {"measurement": "Induction factor (luminescent signal relative to untreated cells)", "setting": "PPARα; 100 μM", "result": 60},
      {"measurement": "Induction factor (luminescent signal relative to untreated cells)", "setting": "PPARα; 100 μM, listed as Cp4", "result": 61.07}
    ]},
    {"smiles": "Cc1cc(/C=C/C(=O)c2ccc(Cl)cc2O)cc(C)c1OC(C)(C)C(=O)O", "note": "[Compound 7, 1-[2-hydroxy-4-chlorophenyl]-3-[3,5-dimethyl-4-carboxydimethylmethyloxyphenyl]prop-2-en-1-one]", "values": [
      {"measurement": "Induction factor (luminescent signal relative to untreated cells)", "setting": "PPARα; 10 μM", "result": 36.48},
      {"measurement": "Induction factor (luminescent signal relative to untreated cells)", "setting": "PPARα; 30 μM", "result": 50.37},
      {"measurement": "Induction factor (luminescent signal relative to untreated cells)", "setting": "PPARα; 100 μM, listed as Cp7", "result": 37.84},
      {"measurement": "triglycerides in large sized lipoparticles (exclusion chromatography)", "setting": "[1]; gavage 200 mg/kg for 7 days, FIG. 3-3", "result": "decreased"},
      {"measurement": "cholesterol in large sized lipoparticles (exclusion chromatography)", "setting": "[1]; gavage 200 mg/kg for 7 days, FIG. 3-4", "result": "decreased"}
    ]},
    {"smiles": "CC(C)(Oc1ccc(C(=O)/C=C/c2cc(Br)c(O)c(Br)c2)c(O)c1)C(=O)O", "note": "[Compound 8, 1-[2-hydroxy-4-carboxydimethylmethyloxyphenyl]-3-[3.5-dibromo-4-hydroxyphenyl]prop-2-en-1-one]", "values": [
      {"measurement": "Induction factor (luminescent signal relative to untreated cells)", "setting": "PPARα; 10 μM", "result": 0.62},
      {"measurement": "Induction factor (luminescent signal relative to untreated cells)", "setting": "PPARα; 30 μM", "result": 1.27},
      {"measurement": "Induction factor (luminescent signal relative to untreated cells)", "setting": "PPARα; 100 μM", "result": 10},
      {"measurement": "Induction factor (luminescent signal relative to untreated cells)", "setting": "PPARα; 100 μM, listed as Cp8", "result": 9.98}
    ]},
    {"smiles": "Cc1cc(/C=C/C(=O)c2ccccc2O)cc(C)c1OC(C)(C)C(=O)O", "note": "[Compound 11, 1-[2-hydroxyphenyl]-3-[3,5-dimethyl-4-carboxydimethylmethyloxyphenyl]prop-2-en-1-one]", "values": [
      {"measurement": "Induction factor (luminescent signal relative to untreated cells)", "setting": "PPARα; 1 μM", "result": 1.20},
      {"measurement": "Induction factor (luminescent signal relative to untreated cells)", "setting": "PPARα; 10 μM", "result": 1.39},
      {"measurement": "Induction factor (luminescent signal relative to untreated cells)", "setting": "PPARα; 100 μM, listed as Cp11", "result": 10.19}
    ]},
    {"smiles": "CC(C)(Oc1ccc(C(=O)/C=C/c2ccc(Cl)cc2)c(O)c1)C(=O)O", "note": "[Compound 18, 1-[2-hydroxy-4-carboxydimethylmethyloxyphenyl]-3-[4-chlorophenyil] prop-2-en-1-one]", "values": [
      {"measurement": "lag phase of conjugated diene formation", "setting": "LDL; FIG. 1-4, copper alone 178 minutes", "result": 241, "unit": "min"},
      {"measurement": "rate of conjugated diene formation", "setting": "LDL; FIG. 1-5, copper alone 1.6", "result": "1.4 nmol/min/mg of LDL"},
      {"measurement": "maximum amount of conjugated dienes formed", "setting": "LDL; FIG. 1-6, copper alone 353", "result": "305 nmol per mg of LDL"}
    ]},
    {"smiles": "Cc1cc(/C=C/C(=O)c2ccc(Br)cc2O)cc(C)c1OC(C)(C)C(=O)O", "note": "[Compound 25, 1-[2-hydroxy-4-bromophenyl]-3-[3,5-dimethyl-4-carboxydimethylmethyloxyphenyl]prop-2-en-1-one]", "values": [
      {"measurement": "Induction factor (luminescent signal relative to untreated cells)", "setting": "PPARα; 1 μM", "result": 13.48},
      {"measurement": "Induction factor (luminescent signal relative to untreated cells)", "setting": "PPARα; 10 μM", "result": 21.03},
      {"measurement": "Induction factor (luminescent signal relative to untreated cells)", "setting": "PPARα; 100 μM", "result": 7.01}
    ]},
    {"smiles": "COc1ccccc1C(=O)/C=C/c1cc(C)c(OC(C)(C)C(=O)O)c(C)c1", "note": "[Compound 31, 1-[2-methoxyphenyl]-3-[3,5-dimethyl-4-carboxydimethylmethyloxyphenyl]prop-2-en-1-one]", "values": [
      {"measurement": "Induction factor (luminescent signal relative to untreated cells)", "setting": "PPARα; 1 μM", "result": 3.77},
      {"measurement": "Induction factor (luminescent signal relative to untreated cells)", "setting": "PPARα; 100 μM", "result": 1.21}
    ]},
    {"smiles": "COc1cc(Cl)ccc1C(=O)/C=C/c1cc(C)c(OC(C)(C)C(=O)O)c(C)c1", "note": "[Compound 37, 1-[2-methyloxy-4-chlorophenyl]-3-[3,5-dimethyl-4-carboxydimethylmethyloxyphenyl]prop-2-en-1-one]", "values": [
      {"measurement": "Induction factor (luminescent signal relative to untreated cells)", "setting": "PPARα; 1 μM", "result": 24.55},
      {"measurement": "Induction factor (luminescent signal relative to untreated cells)", "setting": "PPARα; 10 μM", "result": 27},
      {"measurement": "Induction factor (luminescent signal relative to untreated cells)", "setting": "PPARα; 10 μM, listed as Cp37", "result": 27.83},
      {"measurement": "Induction factor (luminescent signal relative to untreated cells)", "setting": "PPARα; 100 μM", "result": 0.02}
    ]},
    {"smiles": "CCCCCCCc1ccc(C(=O)/C=C/c2cc(C)c(OC(C)(C)C(=O)OC(C)(C)C)c(C)c2)cc1", "note": "[Compound 38, 1-[4-heptylphenyl]-3-[3,5-dimethyl-4-tertbutyloxycarbonyldimethylmethyloxyphenyl]prop-2-en-1-one]", "values": [
      {"measurement": "Induction factor (luminescent signal relative to untreated cells)", "setting": "PPARα; 1 μM", "result": 14.70},
      {"measurement": "Induction factor (luminescent signal relative to untreated cells)", "setting": "PPARα; 10 μM", "result": 22},
      {"measurement": "Induction factor (luminescent signal relative to untreated cells)", "setting": "PPARα; 10 μM, listed as Cp38", "result": 22.22},
      {"measurement": "Induction factor (luminescent signal relative to untreated cells)", "setting": "PPARα; 100 μM", "result": 0.311}
    ]},
    {"smiles": "Cc1cc(/C=C/C(=O)c2ccc(Br)cc2)cc(C)c1OC(C)(C)C(=O)O", "note": "[Compound 41, 1-[4-bromophenyl]-3-[3,5-dimethyl-4-carboxydimethylmethyloxyphenyl]prop-2-en-1-one]", "values": [
      {"measurement": "Induction factor (luminescent signal relative to untreated cells)", "setting": "PPARα; 1 μM", "result": 34.61},
      {"measurement": "Induction factor (luminescent signal relative to untreated cells)", "setting": "PPARα; 10 μM", "result": 31},
      {"measurement": "Induction factor (luminescent signal relative to untreated cells)", "setting": "PPARα; 10 μM, listed as Cp41", "result": 31.18},
      {"measurement": "Induction factor (luminescent signal relative to untreated cells)", "setting": "PPARα; 100 μM", "result": 3.39},
      {"measurement": "triglycerides in large sized lipoparticles (exclusion chromatography)", "setting": "[1]; 50 mg/kg/day for 8 days, FIG. 3-11", "result": "decrease"},
      {"measurement": "cholesterol in large sized lipoparticles (exclusion chromatography)", "setting": "[1]; 50 mg/kg/day for 8 days, FIG. 3-12", "result": "decrease"}
    ]}
  ]
}
